Results reported in US20240408119A1, “DELIVERY OF THERAPEUTIC ALKALOID COMPOUNDS” (priority 2022, published 2024).
Where two headings read alike, the source gives them in different places.

Assays:
[1] = Hydrolysis Assay - Condition 1 (SGF); type: physicochemical; conditions: SGF with pepsin pH 1.5, 37° C., 0.5 mM
Experimental: 50 μL of compound (10 mM) in DMSO was diluted into 950 μL of Simulated Gastric Fluid (SGF) with pepsin (pH 1.5) to a final concentration of 0.5 mM. The hydrolysis kinetics were conducted at 37° C. and measured by LCMS at a certain time interval.
(§1) The corresponding LCMS chromatogram were recorded and the conversions were calculated by integration of each peak.
(§2) • 1) LCMS spectra were obtained using Agilent 1200G1956A or SHIMADZU LCMS-2020. Standard LCMS conditions were as follows (running time 1.55 minutes): • Acidic condition: Mobile Phase A: 0.0375% TFA in water (v/v). Mobile Phase B: 0.01875% TFA in acetonitrile (v/v); Column: Kinetex EVO C18 30*2.1 mm, 5 μm. • Basic condition: Mobile Phase A: 0.025% NH3·H2O in water (v/v). Mobile Phase B: Acetonitrile; Column: Kinetex EVO C18 2.1×30 mm, 5 μm. • 2) Conversion (%)=peak area 1/(peak area 1+peak area 2)*100%, peak area 1 is the integration of hydrolyzed product, peak area 2 is the integration of starting material.

[2] = Hydrolysis Assay - Condition 2 (DI Water); type: physicochemical; conditions: 25° C., 0.5 mM
Experimental: 50 μL of compound (10 mM) in DMSO was diluted into 950 μL of DI water to a final concentration of 0.5 mM. The hydrolysis kinetics were conducted at 25° C. and measured by LCMS at a certain time interval.
as §1, §2

[3] = type: in vitro ADME, mouse; conditions: prodrug remaining, 5 μM, 37° C.
Experimental: (§3) Each test was carried out in duplicate for each time point; 0 min, 15 min, 30 min, 60 min, 120, 240 min. […]

[4] = type: in vitro ADME, human; conditions: prodrug remaining, 5 μM, 37° C.
Experimental: as §3

[5] = Plasma Stability Assay (Example A3), rat plasma; type: in vitro ADME; conditions: prodrug remaining, 10 μM, 37° C.
Description: The data is represented in the table below.

SERT = SERT (Homo sapiens (Human), UniProt P31645); test: SERT Inhibition Assay (Neurotransmitter Transporter Fluorescence assay, stable 5HTT cells); type: cell-based
Experimental: SERT inhibition was measured using a Neruotransmitter Transportation Fluorescence assay. Briefly, stable 5HTT cells were prepared in a 384 microwell plate. Compounds were prepared by in assay buffer (20 mM HEPES, 0.1% BSA). The compounds were added to the plated cells and incubated for 30 minutes at 37° C. 25 μL of dye solution (Molecular Devices Neurotransmitter Transporter Uptake Assay Kit) was added per well and incubated for 30 minutes at 37° C. The plates were then read on a plate reader.

[6] = Metabolic Stability in Human Hepatocytes; type: in vitro ADME; conditions: cryopreserved human hepatocytes, 37° C.
Experimental: A 2.5 uL aliquot of 100 μM test compound was incubated with 247.5 uL of cryopreserved hepatocytes suspended in serum-free incubation medium at 5×10^5 viable cells/mL. The mixture was incubated at 37° C. and shaken at 500 rpm for the designated time points (0.5, 15, 30, 60, 90, or 120 min). At each time point, 25 μL aliquot of incubation mixture was transferred to 125 μL of cold acetonitrile containing internal standard, followed by centrifugation for 30 min at 3,220 g. 100 μL of supernatant was mixed with 100 μL of distilled water for analysis by LC-MS/MS. Peak areas were determined from extracted ion chromatograms and in vitro half-life (t1/2) was determined from the concentration vs time regression slope, in vitro t1/2=0.693/k. Conversion of the in vitro t1/2 (in min) into the in vitro intrinsic clearance (in vitro CLint, in μL/min/10^6 cells) is done using: in vitro CLint=kV/N.

in vivo = type: in vivo, mouse; conditions: for half-life / C0 / clearance / Vd: iv, 2 mg/kg; for C0: back extrapolated; for clearance: flagged NR (not reportable, very high vs liver blood flow); for Vd: read-out: Vss
Experimental: Total fifteen male mice were used in this study with n=3 mice/time point with sparse sampling study design. Animals were administered through intravenous route with solution formulation of 323 at 2 mg/kg dose.
The extraction procedure for plasma/brain samples and the spiked plasma/brain calibration standards were identical (PMSF Stabilized Plasma and Brain used for Preparation of calibration standards): A 20 μL of study sample plasma/brain or spiked plasma/brain calibration standard was added to individual pre-labeled micro-centrifuge tubes followed by 200 μL of internal standard prepared in acetonitrile (Rosuvastatin+Cetrizine, 50 ng/mL) was added except for blank, where 200 μL of acetonitrile was added. Samples were vortexed for 5 minutes. Samples were centrifuged for 10 minutes at a speed of 4000 rpm at 4° C. Following centrifugation, 200 μL of clear supernatant was transferred in 96 well plates and analyzed using LC-MS/MS.
Brain samples were diluted (1-part of tissue: 2-part of buffer) and homogenized. The homogenate was submitted for bioanalysis and the concentrations (ng/mL) received were corrected with dilution factor (3×) and the final reported concentrations were represented in ng/g.
The plasma and brain concentration-time data of 323 and 001 were used for the pharmacokinetic analysis.
LLOQ: 323: 1.02 ng/mL for plasma and brain 001: 1.01 ng/mL for plasma and brain

[7] = male, C57BL/6, mouse, in vivo, 323 in brain after 323 IV 2 mg/kg
[8] = male, C57BL/6, mouse, in vivo, 323 in plasma after 323 IV 2 mg/kg
[9] = male, C57BL/6, mouse, in vivo, 323 after 323 IV 2 mg/kg, read-out: Brain concentrations (mean)
[10] = male, C57BL/6, mouse, in vivo, 323 after 323 IV 2 mg/kg, read-out: Plasma concentrations (mean)

For `COc1ccc([C@@]23CCC(OP4(=O)OCC(C)(C)CO4)=C[C@@H]2N(C)CC3)cc1OC` [Compound 323, 2-[[(3aS,7aS)-3a-(3,4-dimethoxyphenyl)-1-methyl-3,4,5,7a-tetrahydro-2H-indol-6-yl]oxy]-5,5-dimethyl-1,3,2λ^5-dioxaphosphinane 2-oxide], the “Condition 1 Conversion (%)” value ([1]; 1 min) was 0%, the “Condition 1 Conversion (%)” value ([1]; 5 min) was 0% and the “Condition 1 Conversion (%)” value ([1]; 30 min) was 0%. For the same compound, the “Condition 1 Conversion (%)” value ([1]; 1 h) was 0%, the “Condition 1 Conversion (%)” value ([1]; 4 h) was 0% and the “Condition 1 Conversion (%)” value ([1]; 24 h) was 0%. For the same compound, the “Condition 2 Conversion (%)” value ([2]; 1 min) was 0%, the “Condition 2 Conversion (%)” value ([2]; 5 min) was 0% and the “Condition 2 Conversion (%)” value ([2]; 30 min) was 0%. The “Condition 2 Conversion (%)” value ([2]; 1 h) was 0%, the “Condition 2 Conversion (%)” value ([2]; 4 h) was 0% and the “Condition 2 Conversion (%)” value ([2]; 24 h) was 0%. The “Mouse Plasma Prodrug (%)” value ([3]; 0 min) was 100.0%, the “Mouse Plasma Prodrug (%)” value ([3]; 15 min) was >99% and the “Mouse Plasma Prodrug (%)” value ([3]; 30 min) was >99%. The “Mouse Plasma Prodrug (%)” value ([3]; 60 min) was 94.1%, the “Mouse Plasma Prodrug (%)” value ([3]; 120 min) was 71.9% and the “Mouse Plasma Prodrug (%)” value ([3]; 240 min) was 50.3%. The “Human Plasma Prodrug (%)” value ([4]; 0 min) was 100%, the “Human Plasma Prodrug (%)” value ([4]; 15 min) was 76.6% and the “Human Plasma Prodrug (%)” value ([4]; 30 min) was 64.5%. The “Human Plasma Prodrug (%)” value ([4]; 60 min) was 38.1%, the “Human Plasma Prodrug (%)” value ([4]; 120 min) was 12.8% and the “Human Plasma Prodrug (%)” value ([4]; 240 min) was 1.60%. For the same compound, the “Rat Plasma Prodrug (%)” value ([5]; 0 min) was 100.00%, the “Rat Plasma Prodrug (%)” value ([5]; 10 min) was >99% and the “Rat Plasma Prodrug (%)” value ([5]; 30 min) was 95.5%. The “Rat Plasma Prodrug (%)” value ([5]; 60 min) was 82.0%, the “Rat Plasma Prodrug (%)” value ([5]; 120 min) was 58.8% and the “Rat Plasma Prodrug (%)” value ([5]; 240 min) was 34.0%. It also gave an IC50 (SERT) of 0.0627 µM, a half-life at 1 μM [6] of 327 min and a hepatocyte CLint at 1 μM [6] of 4.2 µL/min/1e6 cells. For the same compound, the “brain concentrations quantifiable up to” value (in vivo; 323 after 323 IV 2 mg/kg) was ≤ 0.5 h, the “plasma concentrations quantifiable up to” value (in vivo; 323 after 323 IV 2 mg/kg) was “up to 2 h” and the AUClast (in vivo; 323 in brain after 323 IV 2 mg/kg) was 6.56 ng·h/g. It also gave a half-life (in vivo; [7]) of 10.8 min, a C0 (in vivo; [7]) of 33.9 ng/mL and a clearance (in vivo; [7]) of 4350 mL/min/kg. The Vd (in vivo; [7]) was 61.7 L/kg, the half-life (in vivo; [8]) was 10.2 min and the C0 (in vivo; [8]) was 609 ng/mL. The clearance (in vivo; [8]) was 344 mL/min/kg, the Vd (in vivo; [8]) was 3.25 L/kg and the concentration at 0.08 h (in vivo; [9]) was 22.1 ng/g. For the same compound, the concentration at 0.08 h (in vivo; [10]) was 332 ng/mL, the concentration at 0.25 h (in vivo; [9]) was 8.97 ng/g and the concentration at 0.25 h (in vivo; [10]) was 91.6 ng/mL. It also gave a concentration at 0.5 h (in vivo; male, C57BL/6, mouse, in vivo, 323 after 323 IV 2 mg/kg, average of two values, read-out: Brain concentrations (mean)) of 4.43 ng/g, a concentration at 0.5 h (in vivo; [10]) of 26.3 ng/mL and a concentration at 1 h (in vivo; male, C57BL/6, mouse, in vivo, 323 after 323 IV 2 mg/kg, 1 h, read-out: Plasma concentrations (mean)) of 4.05 ng/mL. The concentration at 2 h (in vivo; male, C57BL/6, mouse, in vivo, 323 after 323 IV 2 mg/kg, 2 h, single value, excluded from data analysis, read-out: Plasma concentrations (mean)) was 1.03 ng/mL, the Kp (in vivo; male, C57BL/6, mouse, in vivo, 323 after 323 IV 2 mg/kg, read-out: Brain-Kp) was 0.07 and the AUC(0-t) (in vivo; [8]) was 96 ng·h/mL.
